ChEMBL document CHEMBL1122862, “Synthesis and antibacterial activity of 2,2'-dithiobis(benzamide) derivatives against Mycobacterium species” (1985)
≈ marks a conversion by molar mass, not a printed value.

Key:
Assay type in all cases: functional
[1] = system: Mycobacterium tuberculosis; experiment: Antibacterial activity against Mycobacterium tuberculosis H37Rv.
[2] = system: Mycobacterium intracellulare; experiment: Antibacterial activity against Mycobacterium intracellular.
[3] = system: Mycobacterium kansasii; experiment: Antibacterial activity against Mycobacterium kansasii

SMILES: O=C(c1ccccc1SSc1ccccc1C(=O)n1nnc2ccccc21)n1nnc2ccccc21
- MIC [1]: > 100 µg/mL
- MIC [2]: > 100 µg/mL
- MIC [3]: > 100 µg/mL

SMILES: CCCCCCCCCCCC(=O)OC(C)CNC(=O)c1ccccc1SSc1ccccc1C(=O)NCC(C)OC(=O)CCCCCCCCCCC (centres undefined)
- MIC [1]: 3.13 µg/mL (≈ 3.99 µM)
- MIC [2]: 100 µg/mL (≈ 127 µM)
- MIC [3]: 50 µg/mL (≈ 63.7 µM)

SMILES: CCCCCCCCCCNC(=O)c1ccccc1SSc1ccccc1C(=O)NCCCCCCCCCC
- MIC [1]: 12.5 µg/mL (≈ 21.4 µM)
- MIC [2]: 25 µg/mL (≈ 42.7 µM)
- MIC [3]: 12.5 µg/mL (≈ 21.4 µM)

SMILES: COC(CNC(=O)c1ccccc1SSc1ccccc1C(=O)NCC(OC)OC)OC
- MIC [1]: 3.13 µg/mL (≈ 6.51 µM)
- MIC [2]: 12.5 µg/mL (≈ 26 µM)
- MIC [3]: 12.5 µg/mL (≈ 26 µM)

SMILES: O=C(Nc1ccccc1Cl)c1ccccc1SSc1ccccc1C(=O)Nc1ccccc1Cl
- MIC [1]: 25 µg/mL (≈ 47.6 µM)
- MIC [2]: > 100 µg/mL
- MIC [3]: 100 µg/mL (≈ 190 µM)

SMILES: O=C(Nc1cccc2ccc(O)cc12)c1ccccc1SSc1ccccc1C(=O)Nc1cccc2ccc(O)cc12
- MIC [1]: 50 µg/mL (≈ 84.9 µM)
- MIC [2]: 50 µg/mL (≈ 84.9 µM)
- MIC [3]: 50 µg/mL (≈ 84.9 µM)

SMILES: CCCCCCC(=O)OCCCNC(=O)c1ccccc1SSc1ccccc1C(=O)NCCCOC(=O)CCCCCC
- MIC [1]: 0.78 µg/mL (≈ 1.21 µM)
- MIC [2]: 12.5 µg/mL (≈ 19.4 µM)
- MIC [3]: 0.39 µg/mL (≈ 0.605 µM)

SMILES: CCOC(=O)CNC(=O)c1ccccc1SSc1ccccc1C(=O)NCC(=O)OCC
- MIC [1]: 25 µg/mL (≈ 52.5 µM)
- MIC [2]: 25 µg/mL (≈ 52.5 µM)
- MIC [3]: 25 µg/mL (≈ 52.5 µM)

SMILES: O=C(NCCO)c1ccc(Cl)cc1SSc1ccc(Cl)cc1C(=O)NCCO
- MIC [1]: 6.25 µg/mL (≈ 13.5 µM)
- MIC [2]: 50 µg/mL (≈ 108 µM)
- MIC [3]: 25 µg/mL (≈ 54.2 µM)

SMILES: O=C(Nc1c([N+](=O)[O-])ccc2ccccc12)c1ccccc1SSc1ccccc1C(=O)Nc1c([N+](=O)[O-])ccc2ccccc12
- MIC [1]: 50 µg/mL (≈ 77.3 µM)
- MIC [2]: > 100 µg/mL
- MIC [3]: 50 µg/mL (≈ 77.3 µM)

SMILES: O=C(c1ccccc1SSc1ccccc1C(=O)N1CCN(C/C=C/c2ccccc2)CC1)N1CCN(C/C=C/c2ccccc2)CC1
- MIC [1]: 100 µg/mL (≈ 148 µM)
- MIC [2]: > 100 µg/mL
- MIC [3]: > 100 µg/mL

SMILES: O=C(c1ccccc1SSc1ccccc1C(=O)N1CCN(c2ccccc2)CC1)N1CCN(c2ccccc2)CC1
- MIC [1]: 12.5 µg/mL (≈ 21 µM)
- MIC [2]: 25 µg/mL (≈ 42 µM)
- MIC [3]: 50 µg/mL (≈ 84.1 µM)

SMILES: CCNC(=O)OCCNC(=O)c1ccccc1SSc1ccccc1C(=O)NCCOC(=O)NCC
- MIC [1]: 25 µg/mL (≈ 46.8 µM)
- MIC [2]: 25 µg/mL (≈ 46.8 µM)
- MIC [3]: 25 µg/mL (≈ 46.8 µM)

SMILES: O=C(NC1CCC(O)CC1)c1ccccc1SSc1ccccc1C(=O)NC1CCC(O)CC1 (centres undefined)
- MIC [1]: 12.5 µg/mL (≈ 25 µM)
- MIC [2]: 25 µg/mL (≈ 49.9 µM)
- MIC [3]: 25 µg/mL (≈ 49.9 µM)

SMILES: CCn1c2ccccc2c2cc(NC(=O)c3ccccc3SSc3ccccc3C(=O)Nc3ccc4c(c3)c3ccccc3n4CC)ccc21
- MIC [1]: 3.13 µg/mL (≈ 4.53 µM)
- MIC [2]: > 100 µg/mL
- MIC [3]: 50 µg/mL (≈ 72.4 µM)

SMILES: CCCCCCCCCCCCCCCC(=O)OCCNC(=O)c1ccccc1SSc1ccccc1C(=O)NCCOC(=O)CCCCCCCCCCCCCCC
- MIC [1]: 100 µg/mL (≈ 115 µM)
- MIC [2]: 100 µg/mL (≈ 115 µM)
- MIC [3]: 100 µg/mL (≈ 115 µM)

SMILES: CCCCCCCCCCCCCCCCCCCC(=O)OCCCNC(=O)c1ccccc1SSc1ccccc1C(=O)NCCCOC(=O)CCCCCCCCCCCCCCCCCCC
- MIC [1]: > 100 µg/mL
- MIC [2]: > 100 µg/mL
- MIC [3]: > 100 µg/mL

SMILES: O=C(O)Cc1ccc(NC(=O)c2ccccc2SSc2ccccc2C(=O)Nc2ccc(CC(=O)O)cc2)cc1
- MIC [1]: 100 µg/mL (≈ 175 µM)
- MIC [2]: 100 µg/mL (≈ 175 µM)
- MIC [3]: 100 µg/mL (≈ 175 µM)
